The results in this text go back to PubChem BioAssay AID306 (DTP/NCI, 2004).

The assay relates to BDF1 mice, L1210 Methyl-GAG-resistant leukemia, survival T/C. In words: NCI In Vivo Anticancer Drug Screen. Data for tumor model L1210 Leukemia resistant to Methyl-GAG; NSC 32946 (subcutaneous) in B6D2F1 (BDF1) mice. Conditions: endpoint: mean survival time, higher = longer survival. The protocol:
The antitumor activity of compounds was measured in mice bearing transplantable tumors. Survival or tumor size were measured and the results are expressed as the measurement made in the treated group (T) divided by the measurement made in the vehicle treated control group (C). The tumor model used in this assay is L1210 Leukemia resistant to Methyl-GAG; NSC 32946 (subcutaneous) in B6D2F1 (BDF1) mice

Where [1] appears, read: dose: 5.0 mg/kg/injection, schedule: Q01DX Z (ip), vehicle: saline.
[2] abbreviates: dose: 10.0 mg/kg/injection, schedule: Q01DX Z (ip), vehicle: saline.
[3] abbreviates: dose: 12.5 mg/kg/injection, schedule: Q01DX Z (ip), vehicle: carboxymethylcellulose (CMC).
The mark [4] stands for this setting: dose: 25.0 mg/kg/injection, schedule: Q01DX Z (ip), vehicle: carboxymethylcellulose (CMC).
Setting [5] is: dose: 50.0 mg/kg/injection, schedule: Q01DX Z (ip), vehicle: carboxymethylcellulose (CMC).
The mark [6] stands for this setting: dose: 100.0 mg/kg/injection, schedule: Q01DX Z (ip), vehicle: carboxymethylcellulose (CMC).

Values joined by “and” are separate entries in the source; they are usually repeats but may differ in a detail not shown here. Equal entries are not always repeated. Toxic doses and inconclusive results are not listed.

Take `O=C1CCC(N2C(=O)c3ccccc3C2=O)C(=O)N1` (configuration not stated): the T/C by setting is: (dose: 18.75 mg/kg/injection, schedule: Q01DX Z (ip), vehicle: carboxymethylcellulose (CMC)) 96 % of control; (dose: 37.5 mg/kg/injection, schedule: Q01DX Z (ip), vehicle: carboxymethylcellulose (CMC)) 102 % of control; (dose: 75.0 mg/kg/injection, schedule: Q01DX Z (ip), vehicle: carboxymethylcellulose (CMC)) 102 % of control; (dose: 150.0 mg/kg/injection, schedule: Q01DX Z (ip), vehicle: carboxymethylcellulose (CMC)) 94 % of control.
With `C[C@]12CCC(=O)C=C1CC[C@@H]1[C@@H]2C(=O)C[C@@]2(C)[C@H]1CC[C@]2(O)C(=O)CO`, the T/C is 100 % of control (dose: 6.25 mg/kg/injection, schedule: Q01DX Z (sc), vehicle: steriod suspending solution); 102 % of control (dose: 25.0 mg/kg/injection, schedule: Q01DX Z (sc), vehicle: steriod suspending solution); 121 % of control (dose: 62.5 mg/kg/injection, schedule: Q01DX Z (sc), vehicle: steriod suspending solution); 113 % of control (dose: 100.0 mg/kg/injection, schedule: Q01DX Z (sc), vehicle: steriod suspending solution); 116 % of control (dose: 400.0 mg/kg/injection, schedule: Q01DX Z (sc), vehicle: steriod suspending solution).
As to `N[C@@H](Cc1ccc(N(CCCl)CCCl)cc1)C(=O)O`, the T/C by setting is: (dose: 1.25 mg/kg/injection, schedule: Q01DX Z (ip), vehicle: saline) 92 % of control; (dose: 2.5 mg/kg/injection, schedule: Q01DX Z (ip), vehicle: saline) 106 % of control; under setting [1], 123 % of control; under setting [2], 92 % of control.
As to `CCCNc1ncnc2[nH]ncc12`, the T/C is 96 % of control (dose: 5.0 mg/kg/injection, schedule: Q01DX Z (ip), vehicle: water); 93 % of control (dose: 10.0 mg/kg/injection, schedule: Q01DX Z (ip), vehicle: water); 120 % of control (dose: 20.0 mg/kg/injection, schedule: Q01DX Z (ip), vehicle: water); 88 % of control and 112 % of control (dose: 40.0 mg/kg/injection, schedule: Q01DX Z (ip), vehicle: water).
Regarding `CS(=O)(=O)OCC(O)C(O)COS(C)(=O)=O` (configuration not stated), the T/C by setting is: (dose: 99.0 mg/kg/injection, schedule: Q01DX Z (ip), vehicle: saline) 101 % of control; (dose: 188.0 mg/kg/injection, schedule: Q01DX Z (ip), vehicle: saline) 101 % of control; (dose: 375.0 mg/kg/injection, schedule: Q01DX Z (ip), vehicle: saline) 101 % of control; (dose: 750.0 mg/kg/injection, schedule: Q01DX Z (ip), vehicle: saline) 117 % of control and 120 % of control; (dose: 1500.0 mg/kg/injection, schedule: Q01DX Z (ip), vehicle: saline) 109 % of control and 120 % of control; (dose: 3000.0 mg/kg/injection, schedule: Q01DX Z (ip), vehicle: saline) 112 % of control.
On to `N=[N+]=CC(=O)OCC(N)C(=O)O` (configuration not stated), for which the T/C (dose: 1.56 mg/kg/injection, schedule: Q01DX Z (ip), vehicle: saline) is 104 % of control; the T/C (dose: 3.12 mg/kg/injection, schedule: Q01DX Z (ip), vehicle: saline) was 104 % of control; the T/C (dose: 4.7 mg/kg/injection, schedule: Q01DX Z (ip), vehicle: saline) is 100 % of control; the T/C (dose: 12.5 mg/kg/injection, schedule: Q01DX Z (ip), vehicle: saline) was 156 % of control and 150 % of control; the T/C (dose: 18.8 mg/kg/injection, schedule: Q01DX Z (ip), vehicle: saline) was 104 % of control; the T/C (dose: 25.0 mg/kg/injection, schedule: Q01DX Z (ip), vehicle: saline) was 116 % of control.
Take `Cc1n[nH]c(=O)[nH]c1=O`: the T/C by setting is: (dose: 0.8 mg/kg/injection, schedule: Q01DX Z (ip), vehicle: other) 100 % of control; (dose: 1.6 mg/kg/injection, schedule: Q01DX Z (ip), vehicle: other) 102 % of control; (dose: 3.1 mg/kg/injection, schedule: Q01DX Z (ip), vehicle: other) 98 % of control; (dose: 6.25 mg/kg/injection, schedule: Q01DX Z (ip), vehicle: other) 120 % of control; (dose: 6.3 mg/kg/injection, schedule: Q01DX Z (ip), vehicle: other) 100 % of control; (dose: 12.5 mg/kg/injection, schedule: Q01DX Z (ip), vehicle: other) 101 % of control. Also, the T/C is 100 % of control (dose: 25.0 mg/kg/injection, schedule: Q01DX Z (ip), vehicle: other); 95 % of control and 103 % of control (dose: 50.0 mg/kg/injection, schedule: Q01DX Z (ip), vehicle: other); 91 % of control (dose: 100.0 mg/kg/injection, schedule: Q01DX Z (ip), vehicle: other); 88 % of control (dose: 200.0 mg/kg/injection, schedule: Q01DX Z (ip), vehicle: other); 89 % of control (dose: 400.0 mg/kg/injection, schedule: Q01DX Z (ip), vehicle: other).
On to `CN(Cc1cnc2nc(N)nc(N)c2n1)c1ccc(C(=O)N[C@@H](CCC(=O)O)C(=O)O)cc1`, for which the T/C is, setting by setting: (dose: 0.31 mg/kg/injection, schedule: Q01DX Z (ip), vehicle: other) 157 % of control and 164 % of control (2×); (dose: 0.43 mg/kg/injection, schedule: Q01DX Z (ip), vehicle: other) 160 % of control; (dose: 0.62 mg/kg/injection, schedule: Q01DX Z (ip), vehicle: other) 235 % of control and 245 % of control and 246 % of control; (dose: 0.87 mg/kg/injection, schedule: Q01DX Z (ip), vehicle: other) 255 % of control; (dose: 1.25 mg/kg/injection, schedule: Q01DX Z (ip), vehicle: other) 262 % of control and 270 % of control and 276 % of control; (dose: 1.5 mg/kg/injection, schedule: Q01DX Z (ip), vehicle: other) 194 % of control. The T/C (dose: 1.75 mg/kg/injection, schedule: Q01DX Z (ip), vehicle: other) is 301 % of control; the T/C (dose: 2.5 mg/kg/injection, schedule: Q01DX Z (ip), vehicle: other) was 178 % of control; the T/C (dose: 3.0 mg/kg/injection, schedule: Q01DX Z (ip), vehicle: other) is 234 % of control; the T/C (dose: 3.5 mg/kg/injection, schedule: Q01DX Z (ip), vehicle: other) was 116 % of control; the T/C (dose: 5.0 mg/kg/injection, schedule: Q01DX Z (ip), vehicle: other) was 95 % of control and 118 % of control.
As for `Cn1c(N)nc2nc[nH]c2c1=S`, the T/C is, setting by setting: (dose: 1.6 mg/kg/injection, schedule: Q01DX Z (ip), vehicle: carboxymethylcellulose (CMC)) 98 % of control; (dose: 3.1 mg/kg/injection, schedule: Q01DX Z (ip), vehicle: carboxymethylcellulose (CMC)) 100 % of control and 104 % of control; (dose: 6.25 mg/kg/injection, schedule: Q01DX Z (ip), vehicle: carboxymethylcellulose (CMC)) 97 % of control and 102 % of control; under setting [3], 93 % of control and 98 % of control and 102 % of control; under setting [4], 102 % of control; under setting [5], 100 % of control and 111 % of control. In addition, the T/C runs as follows: under setting [6], 101 % of control; (dose: 200.0 mg/kg/injection, schedule: Q01DX Z (ip), vehicle: carboxymethylcellulose (CMC)) 97 % of control.
For the compound `CCCSc1ncnc2nc[nH]c12`, the T/C (dose: 6.3 mg/kg/injection, schedule: Q01DX Z (ip), vehicle: carboxymethylcellulose (CMC)) is 107 % of control; the T/C under setting [3] was 110 % of control; the T/C under setting [4] is 110 % of control and 118 % of control; the T/C under setting [5] was 117 % of control and 123 % of control; the T/C under setting [6] was 110 % of control.
Consider `CCCCCCCCCCCCNCCCCCCCCCCCC`, for which the T/C (dose: 7.5 mg/kg/injection, schedule: Q01DX Z (ip), vehicle: carboxymethylcellulose (CMC)) is 94 % of control; the T/C (dose: 15.0 mg/kg/injection, schedule: Q01DX Z (ip), vehicle: carboxymethylcellulose (CMC)) is 101 % of control; the T/C (dose: 30.0 mg/kg/injection, schedule: Q01DX Z (ip), vehicle: carboxymethylcellulose (CMC)) is 103 % of control.
Take `N#[N+]c1cnc([O-])[nH]c1=O`: the T/C is 88 % of control (dose: 5.0 mg/kg/injection, schedule: Q01DX Z (ip), vehicle: carboxymethylcellulose (CMC)) and 88 % of control (dose: 10.0 mg/kg/injection, schedule: Q01DX Z (ip), vehicle: carboxymethylcellulose (CMC)).
Regarding `S=P(N1CC1)(N1CC1)N1CC1`, the T/C by setting is: (dose: 0.62 mg/kg/injection, schedule: Q01DX Z (ip), vehicle: saline) 111 % of control; under setting [1], 150 % of control; under setting [2], 110 % of control.
